The values below come from US12653901B2, “Anti-EDB antibodies and antibody-drug conjugates” (Pfizer Inc., priority 2016, dated 2026).

“Also recorded” adds a separate entry of the source. Read-outs that look alike come from different tables or passages of the source. Where a SMILES comes first, the peptide text is derived from it. [ ]: non-standard residue; d: D form. The star is where a group is joined. Dolaproine = CO[C@@H]([C@@H]1CCCN1)[C@@H](C)C(=O)O; Dil = CC[C@H](C)[C@H](NC)[C@@H](CC(=O)O)OC; Doe = c1ccc(C[C@H](N*)c2nccs2)cc1; Aib = CC(C)(N)C(=O)O A value given as a limit tells only on which side of the number the result lay.

The subject of one assay is HT29 cells. The experiment in a line: In vitro cytotoxicity, HT29. In kind it is cell-based, human. As to conditions: for IC50: Homo sapiens; for Avg IC50: HT29 (EDB+ FN negative), four days, ng/ml of antibody. The method, then: (§1) Proliferating WI38-VA13 or HT29 cells were harvested from culture flasks with non-enzymatic cell dissociation buffer and cultured overnight in 96-well plates (Corning) at 1000 cells/well in a humidified chamber (37° C., 5% CO2). The next day, cells were treated with EDB ADCs or isotype control non-EDB-binding ADCs by adding 50 μl of 3× stocks in duplicate at 10 concentrations. In some experiments, cells were plated at 1500 cells/well and treated the same day. Cells were then incubated with EDB ADCs or isotype control non-EDB-binding ADCs for four days. On harvest day, 50 μl of Cell Titer Glo (Promega) was added to the cells and incubated 0.5 hours at room temperature. Luminescence was measured on a Victor plate reader (Perkin Elmer, Waltham, MA). Relative cell viability was determined as a percentage of untreated control wells. IC50 values were calculated using four-parameter logistic model #203 with XLfit v4.2 (IDBS).

The next assay has as its system WI38-VA13 cells. The experiment in a line: In vitro cytotoxicity, WI38-VA13. In kind it is cell-based, human. As to conditions: for IC50: Homo sapiens. The procedure:
as §1

The subject of the next assay is PDX-PAX-12534. The experiment in a line: In vivo efficacy, PDX-PAX-12534 pancreatic PDX. Set-up: species or system mouse. Conditions: 0.3, 1 and 3 mg/kg. The source says:
(§2) To generate PDX models, tumors were collected from donor animals and tumor fragments approximately 3×3 mm were implanted subcutaneously into the flank of female athymic nude mice (for PDX-NSX-11122 model) or NOD SCID mice (for PDX-PAX-13565 and PDX-PAX-12534 models) by using a 10 gage trocar. When average tumor volume reached approximately 160 to 260 mm^3 the mice were randomized into treatment groups, with 7-10 mice in each group. ADCs or vehicle (PBS) dosing regime and administration route as well as tumor measurement procedures are the same as described above for CLX models. […] Tumor growth inhibition is plotted as an average of tumor size±SEM.

Another assay relates to EMT6 syngeneic tumors. In words: Immune response in treated EMT6 syngeneic tumors. The class given is in vivo, mouse.
In another assay the test system is HT29. In words: In vivo efficacy, HT29 colon CLX. Further details: species or system mouse. Conditions: 3 mg/kg. From the text:
(§3) To generate CLX models, 8×10^6 to 10×10^6 cells of H-1975, HT29, or Ramos tumor lines were implanted into female athymic nude mice subcutaneously. Ramos and H-1975 cells for inoculation were suspended in 50% and 100% […]® (BD Biosciences, biological call culture substrate), respectively. For the Ramos model, the animals received whole body irradiation (4 Gy) before cell inoculation to facilitate the establishment of tumors. When the average tumor volume reached approximately 160 to 320 mm^3, the animals were randomized into treatment groups, with 8-10 mice in each group. ADCs or vehicle (PBS) were administered intravenously on day 0 and then the animals were dosed once every 4 days for 4 to 8 doses. Tumors were measured once or twice weekly and tumor volume was calculated as volume (mm^3)[…](width×width×length)/2.

The subject of another assay is PDX-PAX-13565. The experiment in a line: In vivo efficacy, PDX-PAX-13565 pancreatic PDX. Set-up: species or system mouse. As to conditions: 0.3, 1 and 3 mg/kg.
Source text: as §2

Another assay concerns PDX-NSX-11122. In words: In vivo efficacy, PDX-NSX-11122 NSCLC PDX. Set-up: species or system mouse.
Source text: as §2

Another assay has as its system Ramos. The experiment in a line: In vivo efficacy, Ramos lymphoma CLX. Further details: species or system mouse. As to conditions: 1 and 3 mg/kg.
Source text: as §3

A further assay has as its system H-1975. In words: In vivo efficacy, H-1975 NSCLC CLX. Further details: species or system mouse. As to conditions: intravenous, once every 4 days, doses as in value.
Source text: as §3

Assay [1] concerns the target recombinant cynomolgus monkey 7-EDB-89. The experiment in a line: SPR binding kinetics to cynomolgus monkey 7-EDB-89. The method, then:
Binding is detected by surface SPR of laser light refracting from the surface. Analysis of the signal kinetics on-rate (ka) and off-rate (kd), allows the discrimination between non-specific and specific interactions.
The running and sample buffer used was HBS-EP+ buffer (0.01M HEPES, 0.15M NaCl, 3 mM EDTA, and 0.05% v/v surfactant P20 pH7.4). […] All SPR assays were performed at 25° C. with a data collection rate of 1 Hz using a BIACORE® (Cytiva; surface plasmon resonance (SPR) system) T200 instrument (GE Healthcare). The resulting sensorgrams were double referenced (Myszka, D. G., J. Mol. Recognit., 12:279-284, 1999) using both a control surface and buffer injections. The rate constants were determined by fitting the data to a 1:1 Langmuir model with BIACORE® (Cytiva; surface plasmon resonance (SPR) system) T200 evaluation software v2.0 and the equation KD=kd/ka. Each experiment was run in duplicate and the average KD was determined.
For orientation: SPR reads the build-up and loss of mass on a sensor chip optically.

The mark [2] stands for this setting: HT-29, unconjugated payload, HT29, read-out: Avg IC50.
Setting [3] is: WI-38 VA13, unconjugated payload, WI38-VA13, read-out: Avg IC50.

recombinant cynomolgus monkey 7-EDB-89, sequence (as listed by the source): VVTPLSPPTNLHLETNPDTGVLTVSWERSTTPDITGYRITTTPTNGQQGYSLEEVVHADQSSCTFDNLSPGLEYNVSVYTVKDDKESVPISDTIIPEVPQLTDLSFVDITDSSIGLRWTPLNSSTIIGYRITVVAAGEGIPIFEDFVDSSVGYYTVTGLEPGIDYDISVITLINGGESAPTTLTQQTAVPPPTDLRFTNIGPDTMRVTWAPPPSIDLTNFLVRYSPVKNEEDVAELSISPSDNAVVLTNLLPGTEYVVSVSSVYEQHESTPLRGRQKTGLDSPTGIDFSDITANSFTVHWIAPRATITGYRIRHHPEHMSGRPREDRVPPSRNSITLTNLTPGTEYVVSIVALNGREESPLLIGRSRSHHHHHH

Broadly, the IC50 is the concentration that gives 50% inhibition. In the case of `CC[C@H](C)[C@@H]([C@@H](CC(=O)N1CCC[C@H]1[C@H](OC)[C@@H](C)C(=O)N[C@@H](Cc1ccccc1)c1nccs1)OC)N(C)C(=O)[C@@H](NC(=O)C(C)(C)N)C(C)C` [Payload-0101] (H-[Aib]V[Dil][Dolaproine]-Doe), the half-maximal inhibitory concentration (IC50) turned out to be 0.09 nM with HT29 cells (HT-29, read-out: Avg IC50) and 0.392 nM in the assay on WI38-VA13 cells (WI-38 VA13, read-out: Avg IC50).

Turning to `Cc1c[nH]c2c1[C@@]13C[C@@H]1CN(C(=O)C14CC5(C(=O)N6C[C@H]7C[C@@]78C6=CC(=O)c6[nH]cc(C)c68)CC15C4)C3=CC2=O` (stereo partly drawn) [Payload-0326], the IC50 with HT29 cells (HT-29, read-out: Avg IC50) was 0.049 nM; in the assay with WI38-VA13 cells (WI-38 VA13, read-out: Avg IC50), under 0.001 nM.

Regarding `CC[C@H](C)[C@@H]([C@@H](CC(=O)N1CCC[C@H]1[C@H](OC)[C@@H](C)C(=O)N[C@@H](Cc1ccc(N)cc1)c1nccs1)OC)N(C)C(=O)[C@@H](NC(=O)C(C)(C)N(C)C)C(C)C` [Payload-1569], the values for the IC50 with HT29 cells (setting [2]) and in the assay on WI38-VA13 cells (setting [3]) were 0.074 nM and 0.269 nM, respectively.

`CC[C@H](C)[C@@H]([C@@H](CC(=O)N1CCC[C@H]1[C@H](OC)[C@@H](C)C(=O)N[C@@H](Cc1ccc(CS)cc1)c1nccs1)OC)N(C)C(=O)[C@@H](NC(=O)C(C)(C)N(C)C)C(C)C` [Payload-4574]: the half-inhibitory concentration (IC50) came to 3.65 nM with HT29 cells (HT-29, read-out: Avg IC50) and 3.54 nM with WI38-VA13 cells (WI-38 VA13, read-out: Avg IC50).

For `CC[C@H](C)[C@@H]([C@@H](CC(=O)N1CCC[C@H]1[C@H](OC)[C@@H](C)C(=O)N[C@@H](Cc1ccc(N)cc1)c1nccs1)OC)N(C)C(=O)[C@@H](NC(=O)[C@]1(C)CCCN1C)C(C)C` [Payload-9411], the IC50 in the assay with HT29 cells (setting [2]) was found to be 0.197 nM; with WI38-VA13 cells (setting [3]), 0.519 nM.

Turning to `COc1cc2cc(c1Cl)N(C)C(=O)C[C@H](OC(=O)[C@H](C)N(C)C(=O)CCS)[C@]1(C)O[C@H]1[C@H](C)[C@@H]1C[C@@](O)(NC(=O)O1)[C@H](OC)/C=C/C=C(\C)C2` [Payload-DM1, mertansine, reference compound], the concentration for half-maximal inhibition (IC50) in the assay on HT29 cells (HT-29, read-out: Avg IC50) turned out to be 2.63 nM; in the assay on WI38-VA13 cells (WI-38 VA13, read-out: Avg IC50), 3.06 nM.

As for “ADC1: EDB-L19 antibody conventionally conjugated via cysteine residues to auristatin 0101 with vc linker”, the anti-tumor efficacy entry in the assay with PDX-PAX-12534 and with PDX-PAX-13565 was “tumor regression in a dose dependent manner” in each case. Further, the “expression of PDL1” value with EMT6 syngeneic tumors (treated tumors) is recorded as “increased expression of PDL1”. The “infiltration of CD3+ T cells” value with EMT6 syngeneic tumors (treated tumors vs. vehicle controls) was “Increased infiltration of CD3+ T cells”. In addition, the anti-tumor activity entry in the assay with HT29 was “tumor regression at the 3 mg/kg dose over time”; with PDX-NSX-11122 (1 mg/kg), “delayed tumor growth”; in the assay with PDX-NSX-11122 (3 mg/kg), “complete regressions”; in the assay on PDX-NSX-11122 (intravenous, once every 4 days, doses as in value, listed as EDB-L19-vc-0101) it was “tumor regression in a dose dependent manner at 3 mg/kg and 1.5 mg/kg; also recorded: greater efficacy as compared to isotype negative control ADCs and ADCs that were generated using a disulfide linker”; with Ramos it was “tumor regression at the 3 mg/kg dose in a dose dependent manner”; in the assay on H-1975 (listed as EDB-L19-vc-0101), “tumor regression in a dose dependent manner at 3 mg/kg, and at as low as 1.5 mg/kg; also recorded: tumor regression at the highest doses evaluated”. Further, the “Avg IC50” value in the assay with HT29 cells is recorded as 15,346 ng/ml.

In the case of “ADC5: EDB-L19 antibody conjugated to DM1 with disulfide (diS) linker”, the “Avg IC50” value with HT29 cells is 237 ng/mL; in the assay on WI38-VA13 cells (WI38-VA13 (EDB+ FN positive), four days, ng/ml of antibody) it was 0.268 µg/mL.

Consider “ADC10: EDB-L19 antibody conjugated to auristatin 1569 with vc linker”, for which the “Avg IC50” value in the assay with HT29 cells is recorded as 5,702 ng/ml. For the same molecule, in the assay with H-1975, the anti-tumor activity entry is listed as “tumor regression in a dose dependent manner”.

The Kd is the free concentration of one partner at which half of the binding sites on the other are occupied at equilibrium, for simple one-to-one binding. “Ab1: L19 human monoclonal IgG1 antibody binding EDB; HC SEQ ID NO: 8, LC SEQ ID NO: 15”: in assay [1], the dissociation constant Kd is 188 nM, the ka came out at 560000 M⁻¹ s⁻¹ and the kd worked out at 0.105 s⁻¹.
